These are literature values, as cited in article PMC9409351, “Differential Ganglioside and Cholesterol Depletion by Various Cyclodextrin Derivatives and Their Effect on Synaptosomal Glutamate Release” (International Journal of Molecular Sciences, 2022).

In data set [1] the test system is cell model of GM1 gangliosidosis. Details: method as in doi:10.1007/s10847-018-0835-8. The following applies: immunofluorescence staining; cited from earlier work.
A further data set concerns cerebellar granule cells. Details: method as in PMID 12897192. The following applies: in addition to cholesterol extraction; cited from earlier work.

For the molecule `COCC1OC2OC3C(COC)OC(OC4C(COC)OC(OC5C(COC)OC(OC6C(COC)OC(OC7C(COC)OC(OC1C(O)C2OC)C(OC)C7O)C(OC)C6O)C(OC)C5O)C(OC)C4O)C(OC)C3O` (stereo not drawn) [DIMEA, hexakis(2,6-di-O-methyl)-alpha-cyclodextrin], the “Lysosomal accumulation of GM1” value in data set [1] is reported as “reduced lysosomal accumulation of GM1”. methylated beta-cyclodextrins [MBCD]: the “Sphingomyelin and GSL levels after treatment” value with cerebellar granule cells is “reduction in the sphingomyelin and GSL levels”.
